“And” between values parts separate entries of the source, which are not always exact repeats. Equal values may be shown once.
Tests used:
[1] = test system: COMBE (Commelina benghalensis, Benghal dayflower); experiment: Postemergence foliar-applied mixtures, direct seeded rice, greenhouse; format: in vivo, Commelina benghalensis L.; conditions: 20 DAA
Source text: Seeds or nutlets of the desired test plant species were planted in a soil matrix prepared by mixing a loam or sandy loam soil (e.g., 28.6 percent silt, 18.8 percent clay, and 52.6 percent sand, with a pH of about 5.8 and an organic matter content of about 1.8 percent) and calcareous grit in an 80 to 20 ratio. The soil matrix was contained in plastic pots with a volume of 1 quart and a surface area of 83.6 square centimeters (cm^2). When required to ensure good germination and healthy plants, a fungicide treatment and/or other chemical or physical treatment was applied. The plants were grown for 8-22 days in a greenhouse with an approximate 14 h photoperiod which was maintained at about 29° C. during the day and 26° C. during the night. Nutrients (Peters Excel® 15-5-15 5-Ca 2-Mg and iron chelate) were applied in the irrigation solution as needed and water was added on a regular basis. Supplemental lighting was provided with overhead metal halide 1000-Watt lamps as necessary. The plants were employed for testing when they reached the first through fourth true leaf stage. […]
(§1) Treatment requirements were calculated based upon the rates being tested, the concentration of active ingredient or acid equivalent in the formulation, and a 12 mL application volume at a rate of 187 L/ha.
For treatments comprised of formulated compounds, measured amounts of compounds were placed individually in 25 mL glass vials and diluted in a volume of 1.25% (v/v) Agri-Dex® crop oil concentrated to obtain 12× stock solutions. […]
For treatments comprised of formulated and technical compounds, weighed amounts of the technical materials were placed individually in 25 mL glass vials and dissolved in a volume of 97:3 v/v acetone/DMSO to obtain 12× stock solutions, and measured amounts of the formulated compounds were placed individually in 25 mL glass vials and diluted in a volume of 1.5% (v/v) crop oil concentrate or water to obtain 12× stock solutions. […]

[2] = test system: SETFA (Setaria faberi, giant foxtail); experiment: Pre-emergence soil-applied mixtures, greenhouse; format: in vivo, Setaria faberi Herrm.; conditions: for Visual Weed Control (%) Obs: 27 DAA
Source text: Seeds or nutlets of the desired test plant species were planted in a soil matrix prepared by mixing a loam soil (32 percent silt, 23 percent clay, and 45 percent sand, with a pH of about 6.5 and an organic matter content of about 1.9 percent) and calcareous grit in an 80 to 20 ratio. The soil matrix was contained in plastic pots with a volume of 1 quart and a surface area of 83.6 square centimeters (cm^2).
Treatments consisted of the benzyl ester of 4-amino-3-chloro-5-fluoro-6-(4-chloro-2-fluoro-3-methoxy-phenyl)pyridine-2-carboxylic acid (compound A) formulated as an SC (suspension concentrate) and various herbicidal components alone and in combination. Forms of compound A were applied on an acid equivalent basis.
Other herbicidal components were applied on an acid equivalent or active ingredient basis and included the PSII-inhibiting herbicides, atrazine formulated as Atrazine® 90WDG, metribuzin formulated as Metribuzin 75DF, simazine formulated as Princep Caliber 90, tebuthiuron formulated as Spike 80DF, cyanazine (technical grade material), hexazinone (technical grade material), linuron (technical grade material), terbuthylazine (technical grade material), and diuron formulated as Diuron 4L.
as §1
For treatments comprised of formulated compounds, measured amounts of compounds were placed individually in 25 mL glass vials and diluted in a volume of 1.25% (v/v) Agri-Dex® crop oil concentrate (COC) to obtain 12× stock solutions. […] Application solutions were prepared by adding an appropriate amount of each stock solution (e.g., 1 mL) and diluted to the appropriate final concentrations with the addition of 10 mL of an aqueous mixture of 1.25% (v/v) COC so that the final spray solutions contained 1.25% (v/v) COC.
For treatments comprised of technical compounds, weighed amounts can be placed individually in 25 mL glass vials and dissolved in a volume of 97:3 (v/v) acetone/DMSO to obtain 12× stock solutions. […] Application solutions can be prepared by adding an appropriate amount of each stock solution (e.g., 1 mL) and diluted to the appropriate final concentrations with the addition of 10 mL of an aqueous mixture of 1.5% (v/v) COC so that the final spray solutions contain 1.25% (v/v) COC. When technical materials are used, the concentrated stock solutions can be added to the spray solutions so that the final acetone and DMSO concentrations of the application solutions are 16.2% and 0.5%, respectively.
For treatments comprised of formulated and technical compounds, weighed amounts of the technical materials can be placed individually in 25 mL glass vials and dissolved in a volume of 97:3 (v/v) acetone/DMSO to obtain 12× stock solutions, and measured amounts of the formulated compounds can be placed individually in 25 mL glass vials and diluted in a volume of 1.5% (v/v) COC or water to obtain 12× stock solutions. […] Application solutions can be prepared by adding an appropriate amount of each stock solution (e.g., 1 mL) and diluted to the appropriate final concentrations with the addition of an appropriate amount of an aqueous mixture of 1.5% (v/v) COC so that the final spray solutions contain 1.25% (v/v) COC. As required, additional water and/or 97:3 (v/v) acetone/DMSO can be added to individual application solutions so that the final acetone and DMSO concentrations of the application solutions being compared are 8.1% and 0.25%, respectively.
All stock solutions and applications solutions were visually inspected for compound compatibility prior to application. Spray solutions were applied to the soil with an overhead Mandel track sprayer equipped with a 8002E nozzles calibrated to deliver 187 L/ha over an application area of 0.503 m^2 at a spray height of 18 inches (46 cm) above average pot height. […]

Compound | Visual Weed Control (%) Obs ([1]; 6 g ae/ha) | Visual Weed Control (%) Obs ([2]; 16 g ae/ha) | Visual Weed Control (%) Obs ([2]; 32 g ae/ha) | Visual Weed Control (%)-29 DAA SETFA Obs ([2]; Compound A Benzyl Ester 16 g ae/ha) | Visual Weed Control (%)-29 DAA SETFA Obs ([2]; Compound A Benzyl Ester 32 g ae/ha) | Visual Weed Control (%) Obs ([1]; 3360 g ai/ha)
COc1c(Cl)ccc(-c2nc(C(=O)OCc3ccccc3)c(Cl)c(N)c2F)c1F [Compound A Benzyl Ester, benzyl ester of 4-amino-3-chloro-5-fluoro-6-(4-chloro-2-fluoro-3-methoxy-phenyl)pyridine-2-carboxylic acid] | 80% and 70% | 8% | 15% | 0% | 0% | 
CCC(=O)Nc1ccc(Cl)c(Cl)c1 [Propanil, N-(3,4-dichlorophenyl)propanamide, reference compound] |  |  |  |  |  | 10%
